IC50 and IC90 data for 40 molecules are collected here from ChEMBL document CHEMBL4483862, “Open-source discovery of chemical leads for next-generation chemoprotective antimalarials” (2018).

What is called IC50 is the point on the concentration scale where inhibition reaches its midpoint. As usually defined, the IC90 is the concentration needed for an effect of 90%.

Bounds are passed on as bounds.

The subject of the experiment is Plasmodium berghei. Nature of the experiment: Luciferase/luciferin-expressing antifolate-resistant parasites were used to infect a culture of HepG2 cells that were pre-incubated with compounds. Infected hepatocytes emit light due to the luciferase reaction. Assay results are presented as the percent inhibition of light emission compared to control. […]. The settings on record: sporozoite; for IC90: read-out: LUCIFERASE INFECTION ASSAY - IC90. Format: functional.

Where [1] appears, read: read-out: LUCIFERASE INFECTION ASSAY - IC50.

Consider `COC(=O)c1ccc(CSc2nnc(NC(=O)c3ccccc3[N+](=O)[O-])s2)cc1`, for which the 90% effect concentration (IC90) is 0.0537 µM. Besides, for the setting “FFLUC_HILL_SLOPE 3.72, FFLUC_R_SQUARED 0.492, PBLUC_HILL_SLOPE 2.08, PBLUC_R_SQUARED 0.667, read-out: LUCIFERASE INFECTION ASSAY - IC50”, the IC50 was determined as 0.0187 µM.
Take `NC(Cc1ccc(F)cc1)c1csc(Nc2ccc(C(F)(F)F)cn2)n1` (stereo not given): the IC90 was 5.98 µM. Moreover, under “PBLUC_HILL_SLOPE 202, PBLUC_R_SQUARED 0.785, read-out: LUCIFERASE INFECTION ASSAY - IC50”, the 50% inhibitory concentration (IC50) is 5.91 µM.
Consider `CCCn1c(NC(=O)c2oc3ccccc3c2COCC)nc2ccccc21`, for which the concentration for an effect of 90% (IC90) was over 10 µM. The IC50 (PBLUC_HILL_SLOPE 8.76, PBLUC_R_SQUARED 0.513, read-out: LUCIFERASE INFECTION ASSAY - IC50) stood at 8.84 µM.
As to `CCOC(=O)c1cc(C#N)c(SCC(=O)Nc2ccccc2CC)nc1C`, the concentration for an effect of 90% (IC90) is over 10 µM. In addition, under setting [1], the IC50 was over 10 µM.
With `COC(=O)c1sc2nccnc2c1N`, the IC90 is over 15.8 µM. Also, the IC50 under setting [1] was over 15.8 µM.
For the molecule `CCc1nc(COC(=O)c2c(C)nsc2NC)cs1`, the IC90 was determined as 5.52 µM. Under setting [1], the concentration for half-maximal inhibition (IC50) amounted to 1.53 µM.
`COc1ccc(C2C3CCc4ccccc4C3=NN2CCO)cc1` (stereo not given): the IC90 is over 10.2 µM. Further, the half-maximal inhibitory concentration (IC50) (HEPG2TOX_HILL_SLOPE 8.7, HEPG2TOX_R_SQUARED 0.737, PBLUC_HILL_SLOPE 7.39, PBLUC_R_SQUARED 0.683, read-out: LUCIFERASE INFECTION ASSAY - IC50) is over 10.2 µM.
For the molecule `COc1ccc(-c2cc(NC(=O)c3ccc(OCc4c(C)noc4C)cc3)ccc2OC)cc1`, the IC90 was over 10 µM. Also, the IC50 (HEPG2TOX_HILL_SLOPE 5.81, HEPG2TOX_R_SQUARED 0.572, PBLUC_HILL_SLOPE 1.68, PBLUC_R_SQUARED 0.219, read-out: LUCIFERASE INFECTION ASSAY - IC50) was over 10 µM.
Turning to `O=C(COc1cccc(Br)c1)N/N=C/C1=C(N2CCOCC2)C(=C/c2ccc(Cl)cc2)/CC1`, the 90% effect concentration (IC90) was over 10 µM. Under setting [1], the IC50 was over 10 µM.
Consider `FC(F)(F)c1cc(Nc2ncnc3sc(-c4ccccc4)cc23)ccc1Cl`, for which the IC90 is over 10 µM. Moreover, where the note is “FFLUC_HILL_SLOPE 9.86, FFLUC_R_SQUARED 0.42, HEPG2TOX_HILL_SLOPE 7.8, HEPG2TOX_R_SQUARED 0.241, read-out: LUCIFERASE INFECTION ASSAY - IC50”, the IC50 is over 10 µM.
As for `Cc1nc2ccccc2c(=O)n1-c1ccc(C(=O)NCCCc2ccccc2)cc1`, the 90% effect concentration (IC90) was over 10 µM. Moreover, under setting [1], the half-inhibitory concentration (IC50) is over 10 µM.
Consider `C=CS(=O)(=O)Oc1cc(C)cc(C)c1`, for which the 90% effect concentration (IC90) is over 10 µM. Moreover, the IC50 (HEPG2TOX_HILL_SLOPE 2.11, HEPG2TOX_R_SQUARED 0.803, read-out: LUCIFERASE INFECTION ASSAY - IC50) was over 10 µM.
Regarding `Cc1nn(Cc2ccccc2Cl)c(Cl)c1C(=O)OC(C(=O)c1c[nH]c2ccccc12)c1ccccc1` (stereo not given), the concentration for an effect of 90% (IC90) was over 10 µM. In addition, the concentration for half-maximal inhibition (IC50) (PBLUC_HILL_SLOPE 3.17, PBLUC_R_SQUARED 0.115, read-out: LUCIFERASE INFECTION ASSAY - IC50) was 6.36 µM.
For `FC(F)(F)c1ccc(C2c3ccsc3CCN2C(=S)Nc2ccc(Cl)cc2Cl)cc1` (stereo not given), the concentration for an effect of 90% (IC90) was over 6.77 µM. Moreover, the IC50 under setting [1] was found to be 4.24 µM.
As to `CC(C)n1ncc2c1N=C(N(C)C)N(c1ccccc1)C2c1ccc(Cl)cc1` (stereo not given), the IC90 was over 10 µM. Further, under “HEPG2TOX_HILL_SLOPE 1.3, HEPG2TOX_R_SQUARED 0.392, read-out: LUCIFERASE INFECTION ASSAY - IC50”, the IC50 is over 10 µM.
For `Cn1c(C(=O)N2CCN(C(c3ccccc3)c3ccccc3)CC2)cc2c(=O)n3ccccc3nc21`, the 90% effect concentration (IC90) was over 10 µM. Besides, the IC50 under setting [1] is over 10 µM.
As to `COc1cc(-c2nc3ccc(NC(=O)c4cccs4)cn3n2)cc(OC)c1OC`, the concentration for an effect of 90% (IC90) was found to be 6.23 µM. Also, the IC50 (PBLUC_HILL_SLOPE 2.1, PBLUC_R_SQUARED 0.836, read-out: LUCIFERASE INFECTION ASSAY - IC50) came to 2.19 µM.
For `CC(=O)Nc1ccc(-c2cnc3ccc(-c4cccc(F)c4)nn23)cc1`, the concentration for an effect of 90% (IC90) worked out at 3.53 µM. The half-maximal inhibitory concentration (IC50) (HEPG2TOX_HILL_SLOPE 8.87, HEPG2TOX_R_SQUARED 0.791, PBLUC_HILL_SLOPE 12.1, PBLUC_R_SQUARED 0.742, read-out: LUCIFERASE INFECTION ASSAY - IC50) stood at 2.95 µM.
For the molecule `CCC(C)c1ccc(NC(=O)Cc2ccc(NS(=O)(=O)c3ccc(Cl)c(Cl)c3)cc2)cc1` (stereo not given), the concentration for an effect of 90% (IC90) was over 10 µM. The IC50 (PBLUC_HILL_SLOPE 11.4, PBLUC_R_SQUARED 0.218, read-out: LUCIFERASE INFECTION ASSAY - IC50) came to 9.54 µM.
Take `Oc1cc(C(F)(F)F)nc(-c2ccccn2)n1`: the concentration for an effect of 90% (IC90) worked out at 5.54 µM. Besides, for the setting “HEPG2TOX_HILL_SLOPE 1.09, HEPG2TOX_R_SQUARED 0.904, PBLUC_HILL_SLOPE 3.05, PBLUC_R_SQUARED 0.293, read-out: LUCIFERASE INFECTION ASSAY - IC50”, the half-inhibitory concentration (IC50) stood at 8.2 µM.
In the case of `Clc1ccc(SCc2cc(N3CCCCC3)nc(-c3ccccn3)n2)cc1`, the IC90 came to 2.67 µM. In addition, the IC50 (HEPG2TOX_HILL_SLOPE 3.02, HEPG2TOX_R_SQUARED 0.983, PBLUC_HILL_SLOPE 17.6, PBLUC_R_SQUARED 0.462, read-out: LUCIFERASE INFECTION ASSAY - IC50) is 2.35 µM.
Turning to `COCCNC(=O)Cn1nnc(C)c1COc1ccc2ccccc2c1`, the IC90 was over 9.31 µM. Moreover, the half-maximal inhibitory concentration (IC50) under setting [1] is over 9.31 µM.
`CCCCc1ccc(N(C(=O)Nc2ccc(Cl)cc2)C2=NC(CC)CS2)cc1` (stereo not given): the IC90 is over 10 µM. In addition, the IC50 (PBLUC_HILL_SLOPE 93.6, PBLUC_R_SQUARED 0.111, read-out: LUCIFERASE INFECTION ASSAY - IC50) came out at 9.99 µM.
Regarding `O=C(NNC(=O)c1ccccc1Nc1ccccc1)c1ccccc1O`, the IC90 turned out to be 9.6 µM. Besides, under setting [1], the IC50 came to 8.81 µM.
For the molecule `CC(=O)Nc1cccc(/C(C)=N/n2c(-c3cccc([N+](=O)[O-])c3)cs/c2=N\c2c(C)cccc2C)c1`, the concentration for an effect of 90% (IC90) stood at 4.17 µM. Also, the half-inhibitory concentration (IC50) (FFLUC_HILL_SLOPE 18.6, FFLUC_R_SQUARED 0.557, PBLUC_HILL_SLOPE 12.4, PBLUC_R_SQUARED 0.7, read-out: LUCIFERASE INFECTION ASSAY - IC50) came to 3.49 µM.
`CC1CCN(C(CNC(=O)N2CCc3sccc3C2)c2cccs2)CC1` (stereo not given): the concentration for an effect of 90% (IC90) amounted to 9.12 µM. Besides, where the note is “PBLUC_HILL_SLOPE 2.26, PBLUC_R_SQUARED 0.56, read-out: LUCIFERASE INFECTION ASSAY - IC50”, the IC50 came out at 3.45 µM.
`Cc1ccc(Nc2nc(C(F)(F)F)nc3ccccc23)cc1S(=O)(=O)N(C)C`: the 90% effect concentration (IC90) is over 10 µM. Moreover, under setting [1], the 50% inhibitory concentration (IC50) is over 10 µM.
Consider `O=S(=O)(c1cccs1)n1ccc(-c2ccc3c(c2)CCO3)n1`, for which the IC90 is over 9.93 µM. Further, the IC50 under setting [1] is over 9.93 µM.
`O=C(Nc1ccc(Cl)c(Cl)c1)n1ccc(C(F)(F)F)n1`: the concentration for an effect of 90% (IC90) is over 10.2 µM. In addition, where the note is “HEPG2TOX_HILL_SLOPE 2.26, HEPG2TOX_R_SQUARED 0.289, PBLUC_HILL_SLOPE 2.6, PBLUC_R_SQUARED 0.537, read-out: LUCIFERASE INFECTION ASSAY - IC50”, the concentration for half-maximal inhibition (IC50) was found to be 5.64 µM.
`Fc1ccc2[nH]cc(CCNc3nc(Cl)nc4nc[nH]c34)c2c1`: the IC90 was found to be 4.27 µM. In addition, under “HEPG2TOX_HILL_SLOPE 2.14, HEPG2TOX_R_SQUARED 0.948, PBLUC_HILL_SLOPE 1.79, PBLUC_R_SQUARED 0.853, read-out: LUCIFERASE INFECTION ASSAY - IC50”, the IC50 stood at 1.25 µM.
As for `COc1cc2c(cc1NC(=O)Cn1cnc(C#N)n1)oc1ccccc12`, the IC90 is over 10 µM. In addition, for the setting “HEPG2TOX_HILL_SLOPE 16.6, HEPG2TOX_R_SQUARED 0.479, read-out: LUCIFERASE INFECTION ASSAY - IC50”, the IC50 was over 10 µM.
Take `O=C(NC1CC1)c1csc(C(O)c2cccc(OC(F)(F)F)c2)n1` (stereo not given): the IC90 stood at 0.901 µM. Also, the IC50 (HEPG2TOX_HILL_SLOPE 2.47, HEPG2TOX_R_SQUARED 0.742, PBLUC_HILL_SLOPE 2.02, PBLUC_R_SQUARED 0.793, read-out: LUCIFERASE INFECTION ASSAY - IC50) came to 0.304 µM.
As for `Cc1nc(Nc2ccc(Cl)cc2)sc1C(=O)Nc1ccccc1`, the IC90 is over 10 µM. Also, the half-maximal inhibitory concentration (IC50) under setting [1] is over 10 µM.
In the case of `Cc1cc(=O)nc(N/N=C/c2ccccc2O)[nH]1`, the IC90 was over 13.5 µM. Also, where the note is “HEPG2TOX_HILL_SLOPE 1.27, HEPG2TOX_R_SQUARED 0.681, PBLUC_HILL_SLOPE 2.52, PBLUC_R_SQUARED 0.516, read-out: LUCIFERASE INFECTION ASSAY - IC50”, the IC50 amounted to 6.93 µM.
Take `CC(=O)N1CCc2cc(NC(=O)Cn3c(COc4ccc5ccccc5c4)nc4ccccc43)ccc21`: the 90% effect concentration (IC90) was over 10 µM. Under setting [1], the IC50 is over 10 µM.
For the molecule `CC(C)CNC(=O)c1cc(Br)ccc1O`, the IC90 was over 10 µM. Moreover, the IC50 under setting [1] was over 10 µM.
`FC(F)(F)c1cc(NCc2ccc(Cl)cc2)nc(-c2ccccn2)n1`: the 90% effect concentration (IC90) is over 9.05 µM. Besides, where the note is “PBLUC_HILL_SLOPE 3.87, PBLUC_R_SQUARED 0.118, read-out: LUCIFERASE INFECTION ASSAY - IC50”, the half-maximal inhibitory concentration (IC50) turned out to be 5.66 µM.
As to `O=C(NNC(=O)c1cc(-c2ccc(Cl)s2)nc2ccccc12)c1cnccn1`, the concentration for an effect of 90% (IC90) was determined as 1.27 µM. In addition, the half-inhibitory concentration (IC50) (HEPG2TOX_HILL_SLOPE 2.73, HEPG2TOX_R_SQUARED 0.802, PBLUC_HILL_SLOPE 17.7, PBLUC_R_SQUARED 0.568, read-out: LUCIFERASE INFECTION ASSAY - IC50) is 1.12 µM.
For `NC(=O)c1ccc(C(F)(F)F)n(CC(=O)c2ccc3c(c2)OCCO3)c1=O`, the concentration for an effect of 90% (IC90) is over 10 µM. The IC50 under setting [1] was over 10 µM.
Consider `Cc1cccc(C)c1N(C(=O)CCNC(=O)c1ccccc1Cl)c1nc2ccccc2s1`, for which the IC90 is over 10 µM. Further, the concentration for half-maximal inhibition (IC50) under setting [1] is over 10 µM.
